Tests used:
BaF3 = assay: Cytotoxicity against mouse BaF3 cells measured after 8 days; format: functional, cell-based; conditions: BaF3, 192 h
[1] = Cytotoxicity against mouse LL2 cells measured after 8 days; format: functional, cell-based; conditions: Lewis lung carcinoma, 192 h
OCI-AML2 = assay: Cytotoxicity against human OCI-AML2 cells measured after 8 days; format: functional, cell-based; conditions: OCI-AML2, 192 h
NCI-H1930 = assay: Cytotoxicity against human NCI-H1930 cells measured after 8 days; format: functional, cell-based; conditions: NCI-H1930, 192 h
RPMI-8226 = assay: Cytotoxicity against human RPMI-8226 cells measured after 8 days; format: functional, cell-based; conditions: RPMI-8226, 192 h
U-266 = assay: Cytotoxicity against human U266B1 cells measured after 8 days; format: functional, cell-based; conditions: U-266, 192 h
[2] = Cytotoxicity against human SCLC-22H cells measured after 8 days; format: functional, cell-based; conditions: 192 h
CCF-STTG1 = assay: Cytotoxicity against human CCF-STTG1 cells measured after 8 days; format: functional, cell-based; conditions: CCF-STTG1, 192 h
[3] = Cytotoxicity against human NCE-G 122 cells measured after 8 days; format: functional, cell-based; conditions: NCE-G 122, 192 h
[4] = Cytotoxicity against human NCE-G 44 cells measured after 8 days; format: functional, cell-based; conditions: NCE-G 44, 192 h
[5] = Cytotoxicity against human NCE-G 84 cells measured after 8 days; format: functional, cell-based; conditions: NCE-G 84, 192 h
[6] = Cytotoxicity against human NCE-G 96 cells measured after 8 days; format: functional, cell-based; conditions: NCE-G 96, 192 h
[7] = Cytotoxicity against human GOS-3 cells measured after 8 days; format: functional, cell-based; conditions: GOS-3, 192 h
[8] = Cytotoxicity against mouse FOX-NY cells measured after 8 days; format: functional, cell-based; conditions: 192 h
MPC-11 = assay: Cytotoxicity against mouse MPC-11 cells measured after 8 days; format: functional, cell-based; conditions: MPC-11, 192 h
[9] = Cytotoxicity against human KP-N-SI9s cells measured after 8 days; format: functional, cell-based; conditions: 192 h
SH-SY5Y = assay: Cytotoxicity against human SH-SY5Y cells measured after 8 days; format: functional, cell-based; conditions: 192 h
[10] = Cytotoxicity against human SM1 cells measured after 8 days; format: functional, cell-based; conditions: SM1, 192 h
EFM-19 = assay: Cytotoxicity against human EFM-19 cells measured after 8 days; format: functional, cell-based; conditions: EFM-19, 192 h
DOV13 = assay: Cytotoxicity against human DOV13 cells measured after 8 days; format: functional, cell-based; conditions: DOV13, 192 h
[11] = Cytotoxicity against human Hs 38.T cells measured after 8 days; format: functional, cell-based; conditions: 192 h
[12] = Cytotoxicity against human ONCO-DG-1 cells measured after 8 days; format: functional, cell-based; conditions: ONCO-DG-1, 192 h
[13] = Cytotoxicity against human OV56 cells measured after 8 days; format: functional, cell-based; conditions: OV56, 192 h
MCF-10A = assay: Cytotoxicity against human MCF-10A PTEN-/- cells measured after 8 days; format: functional, cell-based; conditions: 192 h
[14] = Cytotoxicity against human MT-3 cells measured after 8 days; format: functional, cell-based; conditions: MT-3, 192 h
TYK-nu = assay: Cytotoxicity against human TYK-nu cells measured after 8 days; format: functional, cell-based; conditions: 192 h
CAPAN-1 = assay: Cytotoxicity against human CAPAN-1 cells measured after 8 days; format: functional, cell-based; conditions: CAPAN-1, 192 h
BOKU = assay: Cytotoxicity against human BOKU cells measured after 8 days; format: functional, cell-based; conditions: 192 h
Ca-Ski = assay: Cytotoxicity against human Ca-Ski cells measured after 8 days; format: functional, cell-based; conditions: 192 h
HeLa = assay: Cytotoxicity against human HeLa cells measured after 8 days; format: functional, cell-based; conditions: 192 h
SISO = assay: Cytotoxicity against human SISO cells measured after 8 days; format: functional, cell-based; conditions: 192 h
[15] = Cytotoxicity against human KP-3L cells measured after 8 days; format: functional, cell-based; conditions: 192 h
[16] = Cytotoxicity against human KPP14388 LN cells measured after 8 days; format: functional, cell-based; conditions: 192 h
[17] = Cytotoxicity against human KR7414 cells measured after 8 days; format: functional, cell-based; conditions: KR7414, 192 h
[18] = Cytotoxicity against mouse LTPA cells measured after 8 days; format: functional, cell-based; conditions: 192 h
[19] = Cytotoxicity against human PaTu 8988s cells measured after 8 days; format: functional, cell-based; conditions: 192 h
[20] = Cytotoxicity against human HCC1263 cells measured after 8 days; format: functional, cell-based; conditions: HCC1263, 192 h
SW1990 = assay: Cytotoxicity against human SW1990 cells measured after 8 days; format: functional, cell-based; conditions: SW1990, 192 h
[21] = Cytotoxicity against human TCC-Pan2 cells measured after 8 days; format: functional, cell-based; conditions: TCC-Pan2, 192 h
[22] = Cytotoxicity against mouse TRAMP-C1 cells measured after 8 days; format: functional, cell-based; conditions: TRAMP-C1, 192 h
[23] = Cytotoxicity against mouse TRAMP-C2 cells measured after 8 days; format: functional, cell-based; conditions: TRAMP-C2, 192 h
HT55 = assay: Cytotoxicity against human HT55 cells measured after 8 days; format: functional, cell-based; conditions: HT55, 192 h
MC-38 = assay: Cytotoxicity against mouse MC-38 cells measured after 8 days; format: functional, cell-based; conditions: MC-38, 192 h
[24] = Cytotoxicity against human RKOE6 cells measured after 8 days; format: functional, cell-based; conditions: RKOE6, 192 h
SW1463 = assay: Cytotoxicity against human SW1463 cells measured after 8 days; format: functional, cell-based; conditions: SW1463, 192 h
RPMI-2650 = assay: Cytotoxicity against human RPMI-2650 cells measured after 8 days; format: functional, cell-based; conditions: RPMI-2650, 192 h
[25] = Cytotoxicity against human 537-mel cells measured after 8 days; format: functional, cell-based; conditions: 192 h
B16-F10 = assay: Cytotoxicity against mouse B16-F10 Luciferase cells measured after 8 days; format: functional, cell-based; conditions: B16-F10, 192 h
A498 = assay: Cytotoxicity against human A498 cells measured after 8 days; format: functional, cell-based; conditions: A498, 192 h
CAKI-1 = assay: Cytotoxicity against human CAKI-1 cells measured after 8 days; format: functional, cell-based; conditions: CAKI-1, 192 h
RVH-421 = assay: Cytotoxicity against human RVH-421 cells measured after 8 days; format: functional, cell-based; conditions: RVH-421, 192 h
SNU-423 = assay: Cytotoxicity against human SNU-423 cells measured after 8 days; format: functional, cell-based; conditions: SNU-423, 192 h
[26] = Cytotoxicity against human KE-39 cells measured after 8 days; format: functional, cell-based; conditions: KE-39, 192 h
[27] = Cytotoxicity against human SNU-216 cells measured after 8 days; format: functional, cell-based; conditions: SNU-216, 192 h
[28] = Cytotoxicity against human COR-L26 cells measured after 8 days; format: functional, cell-based; conditions: COR-L26, 192 h
[29] = Cytotoxicity against human FTC-238 cells measured after 8 days; format: functional, cell-based; conditions: FTC-238, 192 h
COLO-684 = assay: Cytotoxicity against human COLO-684 cells measured after 8 days; format: functional, cell-based; conditions: COLO-684, 192 h
H322 = assay: Cytotoxicity against human H322 cells measured after 8 days; format: functional, cell-based; conditions: NCI-H322, 192 h
[30] = Cytotoxicity against human HCC2885 cells measured after 8 days; format: functional, cell-based; conditions: HCC2885, 192 h
[31] = Cytotoxicity against human HCC60 cells measured after 8 days; format: functional, cell-based; conditions: HCC60, 192 h
EFE-184 = assay: Cytotoxicity against human EFE-184 cells measured after 8 days; format: functional, cell-based; conditions: EFE-184, 192 h
[32] = molecular target: GABA-A receptor; alpha-1/beta-2/gamma-2 (Homo sapiens) (UniProt P14867+P47870+P18507); assay: Inhibition of GABA alpha1/beta2/gamma2 (unknown origin) at 1 uM relative to control; format: protein-complex assay

## C/C=C/Cn1cc(-c2ccc(C(=O)N3CCOCC3)cc2)c2cc[nH]c2c1=O
BaF3
  IC50: 20 µM
[1]
  IC50: 20 µM
OCI-AML2
  IC50: 8.38 µM
NCI-H1930
  IC50: 20 µM
RPMI-8226
  IC50: 20 µM
U-266
  IC50: 20 µM
[2]
  IC50: 20 µM
CCF-STTG1
  IC50: 20 µM
[3]
  IC50: 20 µM
[4]
  IC50: 20 µM
[5]
  IC50: 20 µM
[6]
  IC50: 20 µM
[7]
  IC50: 20 µM
[8]
  IC50: 11.9 µM
MPC-11
  IC50: 10.7 µM
[9]
  IC50: 20 µM
SH-SY5Y
  IC50: 20 µM
[10]
  IC50: 17.9 µM
EFM-19
  IC50: 20 µM
DOV13
  IC50: 20 µM
[11]
  IC50: 20 µM
[12]
  IC50: 20 µM
[13]
  IC50: 20 µM
MCF-10A
  IC50: 20 µM
[14]
  IC50: 20 µM
TYK-nu
  IC50: 20 µM
CAPAN-1
  IC50: 20 µM
BOKU
  IC50: 20 µM
Ca-Ski
  IC50: 20 µM
HeLa
  IC50: 20 µM
SISO
  IC50: 20 µM
[15]
  IC50: 20 µM
[16]
  IC50: 20 µM
[17]
  IC50: 20 µM
[18]
  IC50: 20 µM
[19]
  IC50: 20 µM
[20]
  IC50: 20 µM
SW1990
  IC50: 20 µM
[21]
  IC50: 20 µM
[22]
  IC50: 19.7 µM
[23]
  IC50: 20 µM
HT55
  IC50: 20 µM
MC-38
  IC50: 20 µM
[24]
  IC50: 20 µM
SW1463
  IC50: 20 µM
RPMI-2650
  IC50: 20 µM
[25]
  IC50: 20 µM
B16-F10
  IC50: 20 µM
A498
  IC50: 20 µM
CAKI-1
  IC50: 20 µM
RVH-421
  IC50: 20 µM
SNU-423
  IC50: 20 µM
[26]
  IC50: 20 µM
[27]
  IC50: 20 µM
[28]
  IC50: 20 µM
[29]
  IC50: 20 µM
COLO-684
  IC50: 20 µM
H322
  IC50: 20 µM
[30]
  IC50: 20 µM
[31]
  IC50: 20 µM
EFE-184
  IC50: 20 µM
[32]
  inhibition: 8%

## C/C=C/Cn1cc(-c2ccc(C(C)(C)O)cc2OC)c2cc[nH]c2c1=O
BaF3
  IC50: 20 µM
[1]
  IC50: 20 µM
OCI-AML2
  IC50: 14.2 µM
NCI-H1930
  IC50: 20 µM
RPMI-8226
  IC50: 20 µM
U-266
  IC50: 20 µM
[2]
  IC50: 20 µM
CCF-STTG1
  IC50: 20 µM
[3]
  IC50: 20 µM
[4]
  IC50: 20 µM
[5]
  IC50: 20 µM
[6]
  IC50: 20 µM
[7]
  IC50: 20 µM
[8]
  IC50: 20 µM
MPC-11
  IC50: 16.5 µM
[9]
  IC50: 20 µM
SH-SY5Y
  IC50: 20 µM
[10]
  IC50: 11.2 µM
EFM-19
  IC50: 20 µM
DOV13
  IC50: 20 µM
[11]
  IC50: 20 µM
[12]
  IC50: 20 µM
[13]
  IC50: 20 µM
MCF-10A
  IC50: 20 µM
[14]
  IC50: 20 µM
TYK-nu
  IC50: 20 µM
CAPAN-1
  IC50: 20 µM
BOKU
  IC50: 20 µM
Ca-Ski
  IC50: 20 µM
HeLa
  IC50: 20 µM
SISO
  IC50: 20 µM
[15]
  IC50: 20 µM
[16]
  IC50: 20 µM
[17]
  IC50: 20 µM
[18]
  IC50: 20 µM
[19]
  IC50: 20 µM
[20]
  IC50: 20 µM
SW1990
  IC50: 20 µM
[21]
  IC50: 20 µM
[22]
  IC50: 20 µM
[23]
  IC50: 20 µM
HT55
  IC50: 20 µM
MC-38
  IC50: 20 µM
[24]
  IC50: 20 µM
SW1463
  IC50: 20 µM
RPMI-2650
  IC50: 20 µM
[25]
  IC50: 20 µM
B16-F10
  IC50: 20 µM
A498
  IC50: 20 µM
CAKI-1
  IC50: 20 µM
RVH-421
  IC50: 20 µM
SNU-423
  IC50: 20 µM
[26]
  IC50: 20 µM
[27]
  IC50: 20 µM
[28]
  IC50: 20 µM
[29]
  IC50: 9.52 µM
COLO-684
  IC50: 20 µM
H322
  IC50: 20 µM
[30]
  IC50: 20 µM
[31]
  IC50: 20 µM
EFE-184
  IC50: 20 µM
[32]
  inhibition: 4%

Reference: ChEMBL document CHEMBL5260810, “Inhibition of bromodomain-containing protein 9 for the prevention of epigenetically-defined drug resistance” (Bioorg Med Chem Lett, 2017)
